Results reported in patent US5436273A, “Psychoactive propargylamine derivatives used in the treatment of anxiety, psychotic states or aggression” (Lowchol Scientific, Inc., priority 1993, dated 1995).
Where two headings read alike, the source gives them in different places.

Key:
[1] = test system: spontaneous motor activity in rats; experiment: Inhibition of spontaneous motor activity in rats; type: in vivo, Sprague Dawley rats; settings: for ED50: Rattus norvegicus, ip, 0.5 h, i.p., 30 minutes
Description: (§1) Two animals are studied simultaneously, one treated and one control. After a 2 hour period of acclimatization to the room, a first activity count of 10 minutes duration is perfomed. The compound to be studied is then administered i.p. and the spontaneous activity is reevaluated 30 minutes later over a period of 10 minutes.
5. Inhibition of Spontaneous Motor Activity in Rats
The method is the same as described above for mice, except that because of the size of the animals (Sprague Dawley rats; 300 g), the test and control animals are not evaluated simultaneously, but alternatively.

[2] = test system: spontaneous motor activity in mice; experiment: Inhibition of spontaneous motor activity in mice; type: in vivo, CD #1 mice; settings: for ED50: Mus musculus, ip, 0.5 h, i.p., 30 minutes
Description: 4. Inhibition of Spontaneous Motor Activity in Mice
Female CD #1 mice (20-30 g) are used for this experiment. The effect of the compound to be studied on spontaneous activity was evaluated by an automated […] XYZ system. This system allows the simultaneous quantification of the following parameters:
number of stereotypic movements;
number of vertical movements;
number of clockwise revolutions; and
number of counterclockwise revolutions.
as §1

[3] = test system: isolation induced aggressive behavior in mice; experiment: Inhibition of isolation induced fighting behavior in mice; type: in vivo, CD #1 mice; settings: i.p.
Description: 1. Inhibition of Isolation Induced Fighting Behavior in Mice
After this period of confinement, the animals usually develop a marked intraspecific aggressive behavior when they are placed in the same cage.
The compound to be studied is administered i.p. to the selected groups (N=8 pairs/dose×5 doses) and the aggressive behavior is tested again 30 minutes later. […] A one week washout period is allowed between treatments.

[4] = read-out: ED50, clockwise revolutions
[5] = read-out: ED50, counterclockwise revolutions
[6] = read-out: ED50, horizontal activity
[7] = read-out: ED50, number of movements
[8] = read-out: ED50, number of stereotypic movements
[9] = read-out: ED50, stereotypy time

C#CC(C)N (centres unmarked) [Compound 3, 2-Amino-3-butyne]
inhibition of spontaneous motor activity (in words) [1]: of comparable activity in rats
ED50 [1, 4]: 4.1 ± 1.4 mg/kg
ED50 [1, 5]: 3.7 ± 1.7 mg/kg
ED50 [1, 6]: 4.2 ± 1.8 mg/kg
ED50 ([1]; read-out: ED50, movement time): 5.5 ± 2.3 mg/kg
ED50 [1, 7]: 11.8 ± 7.9 mg/kg
ED50 [1, 8]: 5.2 ± 2.4 mg/kg
ED50 [1, 9]: 4.2 ± 1.7 mg/kg
ED50 ([1]; read-out: ED50, total distance): 4.9 ± 2 mg/kg
inhibition of spontaneous motor activity (in words) [2]: more active than buspirone in mice
ED50 [2, 4]: 3.3 ± 1.6 mg/kg
ED50 [2, 5]: 2.7 ± 1.9 mg/kg
ED50 [2, 6]: 4.3 ± 2.2 mg/kg
ED50 ([2]; read-out: ED50, movement time): 8.1 ± 4.5 mg/kg
ED50 [2, 7]: 11.8 ± 5.9 mg/kg
ED50 [2, 8]: 5.5 ± 2.2 mg/kg
ED50 [2, 9]: 3.8 ± 1.6 mg/kg
ED50 ([2]; read-out: ED50, total distance): 5.5 ± 3.4 mg/kg
ED50 ([2]; read-out: ED50, vertical activity): 2.5 ± 1.2 mg/kg
ED50 ([2]; read-out: ED50, vertical movements): 3.2 ± 1.6 mg/kg
ED50 ([2]; read-out: ED50, vertical time): 2.6 ± 1.5 mg/kg
ED50 ([3]; Mus musculus, ip, 0.5 h, read-out: ED50 (dose that suppressed aggressive behavior in 50% of the animals), 30 minutes after administration, probit analysis): 8 mg/kg
inhibition of aggressive behavior (in words) ([3]; mice): particularly potent inhibitors
